How the values were obtained:
parental CHO-K1 cells [1] = assay: Plate immunoassay for pERK, parental CHO-K1 cells; assay type: cell-based, Chinese hamster
h5-HT2AR [2] = target: T1, h5-HT2AR (Homo sapiens, UniProt P28223); assay: Plate immunoassay for pERK, 5-HT2AR-CHO cells; assay type: cell-based; conditions: for pERK response after serum-replete preincubation: overnight serum-replete preincubation (Figure 7)
h5-HT2AR [3] = target: T1, h5-HT2AR; assay: Intracellular calcium (Cai++) release assay, Calcium 4 dye, 5-HT2AR-CHO cells; conditions: for Cai++ response when dye added into existing growth medium: "Serum Replete" protocol, 1 μM agonist (Figure 2)
parental CHO-K1 cells [4] = assay: Intracellular calcium (Cai++) release assay, parental CHO-K1 cells; assay type: cell-based, Chinese hamster
Procedure: Changes in Cai^++ levels were determined using the calcium-sensitive dye Calcium 4 (FLIPR No-wash kit, Molecular Devices, Sunnyvale CA, part #R8142). In our hands, the Molecular Devices kit produced results with reasonable signal intensity and reproducibility compared to other commercially available reagents (e.g., Fluo-3 and Fluo-4) without the necessity of dye removal or washing prior to measurements (data not shown). In addition to convenience, the lower number of manipulations required by this kit allowed for more rapid collection of data and decreased the likelihood of cell disturbance or loss.
Cells were plated in serum-replete medium at indicated densities in black-sided, clear bottom 96-well tissue culture plates. […] When plating volume was less than 150 μl, cells were less evenly distributed (visual observation; data not quantified), so we used 150 to 200 μl. […]
Fluorescence (λex = 485 nm, λem = 525 nm) was measured with a FlexStation3 (Molecular Devices). […] The CHO cells remained attached under these conditions; if using other cells lines, attachment should be monitored and reagent addition conditions modified as necessary.
Following addition of test reagent, fluorescence was recorded every 1.7 sec for 90-120 sec. […] Maximum peak height was determined by the FlexStation software (SoftMax Pro 5.2) for each well. […]

unedited h5-HT2CR [5] = target: T2, unedited h5-HT2CR (Homo sapiens, UniProt P28335); conditions: 5-HT2CR-CHO cells
T2 sequence (P28335 33-458): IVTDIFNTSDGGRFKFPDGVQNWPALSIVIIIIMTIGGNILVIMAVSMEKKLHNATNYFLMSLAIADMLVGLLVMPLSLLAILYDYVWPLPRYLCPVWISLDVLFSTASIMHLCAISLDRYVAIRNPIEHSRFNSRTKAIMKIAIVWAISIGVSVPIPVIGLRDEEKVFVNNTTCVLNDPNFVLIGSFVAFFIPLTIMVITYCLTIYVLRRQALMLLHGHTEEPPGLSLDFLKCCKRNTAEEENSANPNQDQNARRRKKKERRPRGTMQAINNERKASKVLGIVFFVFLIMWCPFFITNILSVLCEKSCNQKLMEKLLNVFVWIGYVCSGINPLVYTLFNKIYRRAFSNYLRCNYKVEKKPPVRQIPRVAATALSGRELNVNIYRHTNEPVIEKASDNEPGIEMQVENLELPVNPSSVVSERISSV

unedited h5-HT2CR [6] = target: T2, unedited h5-HT2CR; assay: Intracellular calcium (Cai++) release assay, Calcium 4 dye, 5-HT2CR-CHO cells
unedited h5-HT2CR [7] = target: T2, unedited h5-HT2CR; assay: cell-based
[8] = EC50 values for agonist-stimulated Cai++ release, 5-HT2CR-CHO cells, Serum-replete overnight preincubation

T1 sequence (P28223 whole entry): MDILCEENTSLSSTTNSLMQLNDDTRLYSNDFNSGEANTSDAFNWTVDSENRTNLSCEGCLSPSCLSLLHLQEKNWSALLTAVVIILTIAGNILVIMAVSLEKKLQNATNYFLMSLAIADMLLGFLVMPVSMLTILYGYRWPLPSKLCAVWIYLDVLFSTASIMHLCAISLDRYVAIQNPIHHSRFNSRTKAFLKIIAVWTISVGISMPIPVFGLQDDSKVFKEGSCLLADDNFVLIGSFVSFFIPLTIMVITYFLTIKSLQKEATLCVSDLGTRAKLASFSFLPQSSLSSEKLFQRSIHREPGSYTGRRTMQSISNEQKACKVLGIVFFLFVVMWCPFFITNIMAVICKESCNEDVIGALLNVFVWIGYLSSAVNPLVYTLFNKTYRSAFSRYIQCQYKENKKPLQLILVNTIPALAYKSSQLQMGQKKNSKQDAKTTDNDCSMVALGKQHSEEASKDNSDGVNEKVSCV

SMILES: NCCc1c[nH]c2ccc(O)cc12 [5-HT, serotonin]
- pERK response (parental CHO-K1 cells [1]): no detectable response
- pERK response after serum-replete preincubation (h5-HT2AR [2]): suppressed
- Time of peak ERK activation (h5-HT2AR [2]; serum-starved overnight, 1 μM 5-HT): 5 min
- Cai++ response when dye added into existing growth medium (h5-HT2AR [3]): dramatically reduced
- Cai++ release above baseline (parental CHO-K1 cells [4]; above 10^-6 M 5-HT, in a few experiments, not consistent): < 5%
- Cai++ release (parental CHO-K1 cells [4]; any concentration of 5-HT (Figure 4B inset)): no Cai^++ release

SMILES: COc1cc(CC(C)N)c(OC)cc1I (stereo not shown) [DOI, 1-[2,5-dimethoxy-4-iodophenyl]-2 aminopropane]
- Concentration giving maximal pERK response (unedited h5-HT2CR [5]; 5 min stimulation): ~1 μM
- pERK response after serum-replete preincubation (unedited h5-HT2CR [5]; overnight serum-replete preincubation (Figure 7)): suppressed
- Cai++ response after serum preincubation (unedited h5-HT2CR [6]; 5-HT2CR-CHO cells, overnight serum-replete preincubation (Figure 3D)): virtually eliminated
- EC50 (unedited h5-HT2CR [6]; [8]): > 100000 nM
- EC50 (unedited h5-HT2CR [6]; EC50 values for agonist-stimulated Cai++ release, 5-HT2CR-CHO cells, Serum-starved overnight preincubation): 5.4 nM
- Concentration giving maximal pERK response (h5-HT2AR [2]; 5 min stimulation): ~1 μM
- pERK response after serum-replete preincubation (h5-HT2AR [2]): suppressed
- EC50 (unedited h5-HT2CR [7]): 19 nM
- Cai++ response when dye added into existing growth medium (h5-HT2AR [3]): completely eliminated
- Cai++ response after serum preincubation (h5-HT2AR [3]; overnight serum-replete preincubation (Figure 3B)): virtually eliminated

SMILES: Clc1cncc(N2CCNCC2)n1 [MK212]
- Cai++ response after serum-replete preincubation (unedited h5-HT2CR [6]; 5-HT2CR-CHO cells preincubated in serum-replete medium): greatly decreased
- EC50 (unedited h5-HT2CR [6]; [8]): > 11000 nM
- Cai++ response magnitude (unedited h5-HT2CR [6]; serum-starved 5-HT2CR-CHO cells): low magnitude
- EC50 values for agonist-stimulated Cai++ release (h5-HT2AR [3]; Serum-replete overnight preincubation): No response
- EC50 values for agonist-stimulated Cai++ release (h5-HT2AR [3]; Serum-starved overnight preincubation): No response
- Cai++ release (h5-HT2AR [3]; any tested concentration up to 10^-4 M): no detectable Cai^++ release

SMILES: COc1ccc(NC(=O)c2ccc(-c3ccc(-c4noc(C)n4)cc3C)cc2)cc1OCCN(C)C [SB216641]
- Effect of 5-HT1BR antagonist on Cai++ concentration response to 5-HT (unedited h5-HT2CR [6]; 5-HT2CR-CHO cells, 10^-6 M SB216641, any concentration of 5-HT): no significant difference

SMILES: Cc1cc2c(cc1Cl)N(C(=O)Nc1ccc(Oc3cccnc3C)nc1)CC2 [SB242084]
- EC50 (unedited h5-HT2CR [6]): 2.3 nM
- Inhibition of 5-HT-stimulated Cai++ response by antagonist (unedited h5-HT2CR [6]; 5-HT2CR-CHO cells, 15 min pretreatment, 1 μM 5-HT): completely inhibited
